Experimental data taken from patent US20250051327A1, “MALT-1 MODULATORS” (EXSCIENTIA AI LIMITED, priority 2020, published 2025).

Columns and labels:
[1] = test system: IL-2 secretion by human effector memory T cells (TEM); experiment: Effector memory T cells IL-2 release assay; assay type: cell-based; settings: T-cell; human CD4+ effector memory T cells, CD3/CD28 bead stimulation, 24 h; read-out: CD4TC IL2 IC50
Summary of the method: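 Human CD4+ effector memory T cells from healthy-donor buffy coats were stimulated with anti-CD3/CD28 Dynabeads and exposed to 10 semi-log compound doses (0.1% DMSO) for 24 h at 37 °C. Supernatant IL-2 was measured by HTRF, and IC50 came from a 4-parameter logistic fit to maximal IL-2. Viability was checked by flow cytometry.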

[2] = target: Recombinant human MALT-1 (amino acids 340-824) (Homo sapiens (Human), UniProt Q9UDY8); experiment: MALT-1 inhibition assay (fluorogenic substrate Ac-LRSR-Rh110-DP); assay type: biochemical; settings: recombinant human MALT-1, substrate Ac-LRSR-Rh110-DP
Sequence of Recombinant human MALT-1 (amino acids 340-824) (Q9UDY8 340-824): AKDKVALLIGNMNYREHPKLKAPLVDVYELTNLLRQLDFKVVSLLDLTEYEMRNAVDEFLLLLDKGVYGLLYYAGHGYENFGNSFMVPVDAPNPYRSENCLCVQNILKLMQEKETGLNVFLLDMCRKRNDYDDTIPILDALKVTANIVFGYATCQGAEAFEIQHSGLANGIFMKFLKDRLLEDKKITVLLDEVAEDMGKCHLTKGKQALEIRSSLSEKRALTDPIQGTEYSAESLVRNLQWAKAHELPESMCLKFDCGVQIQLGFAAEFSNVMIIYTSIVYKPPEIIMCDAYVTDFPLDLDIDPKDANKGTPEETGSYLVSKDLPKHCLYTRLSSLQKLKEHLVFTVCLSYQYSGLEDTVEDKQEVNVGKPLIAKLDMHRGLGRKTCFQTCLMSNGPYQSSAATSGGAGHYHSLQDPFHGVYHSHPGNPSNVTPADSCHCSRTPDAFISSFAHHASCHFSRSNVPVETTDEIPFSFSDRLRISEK
Summary of the method: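 MALT-1 at 3 nM final was reacted with 10 μM Ac-LRSR-Rh110-DP, with substrate addition starting the reaction. Incubation ran 60 minutes at 25° C in the dark. Percent inhibition from fluorescence across doses was fitted to a 4-parameter logistic to give IC50.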

Row | IC50 [1] | IC50 [2] | SMILES
1 | 127 nM | 59 nM | CN=[S@]1(=O)CC[C@@H](C(=O)N(C)[C@@H](c2ccc(N3CCCc4c3cnc3cc(Cl)nn43)cc2)C(F)(F)F)CC1 (relative stereo) [CPD0072530, (1rel-S,4rel-S)—N-[(1S)-1-(4-{4-chloro-2,3,7,10-tetraazatricyclo[7.4.0.0^2,6]trideca-1(9),3,5,7-tetraen-10-yl}phenyl)-2,2,2-trifluoroethyl]-N-methyl-1-(methylimino)-1-oxo-1λ^e-thiane-4-carboxamide]
2 | 141 nM | 38 nM | CN=[S@]1(=O)CC[C@H](C(=O)N(C)[C@@H](c2ccc(N3CCCc4c3cnc3cc(Cl)nn43)cc2)C(F)(F)F)CC1 (relative stereo) [CPD0072531, (1rel-R,4rel-R)—N-[(1S)-1-(4-{4-chloro-2,3,7,10-tetraazatricyclo[7.4.0.0^2,6]trideca-1(9),3,5,7-tetraen-10-yl}phenyl)-2,2,2-trifluoroethyl]-N-methyl-1-(methylimino)-1-oxo-1λ^e-thiane-4-carboxamide]
3 | 35 nM | 73 nM | CN(C(=O)[C@H]1CC[S@@+]([O-])CC1)[C@@H](c1ccc(N2CCC(C)(C)c3c2cnc2cc(Cl)nn32)cc1)C(F)(F)F (relative stereo) [CPD0072776, (1rel-s,4rel-s)-N-[(1S)-1-(4-{4-chloro-13,13-dimethyl-2,3,7,10-tetraazatricyclo[7.4.0.0^2,6]trideca-1(9),3,5,7-tetraen-10-yl}phenyl)-2,2,2-trifluoroethyl]-N-methyl-1-oxo-1λ^4-thiane-4-carboxamide]
4 | 36 nM | 62 nM | CN(C(=O)[C@H]1CC[S@+]([O-])CC1)[C@@H](c1ccc(N2CCC(C)(C)c3c2cnc2cc(Cl)nn32)cc1)C(F)(F)F (relative stereo) [CPD0072777, (1rel-r,4rel-r)-N-[(1S)-1-(4-{4-chloro-13,13-dimethyl-2,3,7,10-tetraazatricyclo[7.4.0.0^2,6]trideca-1(9),3,5,7-tetraen-10-yl}phenyl)-2,2,2-trifluoroethyl]-N-methyl-1-oxo-1λ^4-thiane-4-carboxamide]
5 | 42 nM | 58 nM | CN(C(=O)[C@H]1CC[S@@+]([O-])CC1)[C@@H](c1ccc(N2CCC3(CC3)c3c2cnc2cc(Cl)nn32)cc1)C(F)(F)F (relative stereo) [CPD0072778, (1rel-s,4rel-s)-N-[(1S)-1-(4-{4′-chloro-2′,3′,7′,10′-tetraazaspiro[cyclopropane-1,13′-tricyclo[7.4.0.0^2,6]tridecane]-1′(9′),3′,5′,7′-tetraen-10′-yl}phenyl)-2,2,2-trifluoroethyl]-N-methyl-1-oxo-1λ^4-thiane-4-carboxamide]
6 | 33 nM | 57 nM | CN(C(=O)[C@H]1CC[S@+]([O-])CC1)[C@@H](c1ccc(N2CCC3(CC3)c3c2cnc2cc(Cl)nn32)cc1)C(F)(F)F (relative stereo) [CPD0072779, (1rel-r,4rel-r)-N-[(1S)-1-(4-{4′-chloro-2′,3′,7′,10′-tetraazaspiro[cyclopropane-1,13′-tricyclo[7.4.0.0^2,6]tridecane]-1′(9′),3′,5′,7′-tetraen-10′-yl}phenyl)-2,2,2-trifluoroethyl]-N-methyl-1-oxo-1λ^4-thiane-4-carboxamide]
7 | 107 nM | 75 nM | CN(C(=O)[C@H]1CC[S@@+]([O-])CC1)[C@@H](c1ccc(N2CCC(C)(C)c3c2cnc2cc(F)nn32)cc1)C(F)(F)F (relative stereo) [CPD0072780, (1rel-s,4rel-s)-N-methyl-1-oxo-N-[(1S)-2,2,2-trifluoro-1-(4-{4-fluoro-13,13-dimethyl-2,3,7,10-tetraazatricyclo[7.4.0.0^2,6]trideca-1(9),3,5,7-tetraen-10-yl}phenyl)ethyl]-1λ^4-thiane-4-carboxamide]
8 | 75 nM | 60 nM | CN(C(=O)[C@H]1CC[S@+]([O-])CC1)[C@@H](c1ccc(N2CCC(C)(C)c3c2cnc2cc(F)nn32)cc1)C(F)(F)F (relative stereo) [CPD0072781, (1rel-r,4rel-r)-N-methyl-1-oxo-N-[(1S)-2,2,2-trifluoro-1-(4-{4-fluoro-13,13-dimethyl-2,3,7,10-tetraazatricyclo [7.4.0.02,6]trideca-1(9),3,5,7-tetraen-10-yl}phenyl)ethyl]-1/4-thiane-4-carboxamide]
9 | 95 nM | 53 nM | CN(C(=O)[C@H]1CC[S@@](=N)(=O)CC1)[C@@H](c1ccc(N2CCC(C)(C)c3c2cnc2cc(F)nn32)cc1)C(F)(F)F (relative stereo) [CPD0072782]
10 | 114 nM | 63 nM | CN(C(=O)[C@H]1CC[S@](=N)(=O)CC1)[C@@H](c1ccc(N2CCC(C)(C)c3c2cnc2cc(F)nn32)cc1)C(F)(F)F (relative stereo) [CPD0072783, (1rel-r,4rel-r)-1-imino-N-methyl-1-oxo-N-[(1S)-2,2,2-trifluoro-1-(4-{4′-fluoro-2′,3′,7′,10′-tetraazaspiro[cyclopropane-1,13′-tricyclo[7.4.0.0^2,6]tridecane]-1′(9′),3′,5′,7′-tetraen-10′-yl}phenyl)ethyl]-1λ^6-thiane-4-carboxamide]
11 | 56 nM | 74 nM | CN(C(=O)[C@H]1CC[S@@](=N)(=O)CC1)[C@@H](c1ccc(N2CCC(C)(C)c3c2cnc2cc(Cl)nn32)cc1)C(F)(F)F (relative stereo) [CPD0072784, (1rel-s,4rel-s)-N-[(1S)-1-(4-{4-chloro-13,13-dimethyl-2,3,7,10-tetraazatricyclo[7.4.0.0^2,6]trideca-1(9),3,5,7-tetraen-10-yl}phenyl)-2,2,2-trifluoroethyl]-1-imino-N-methyl-1-oxo-1λ^6-thiane-4-carboxamide]
12 | 51 nM | 76 nM | CN(C(=O)[C@H]1CC[S@](=N)(=O)CC1)[C@@H](c1ccc(N2CCC(C)(C)c3c2cnc2cc(Cl)nn32)cc1)C(F)(F)F (relative stereo) [CPD0072785, (1rel-r,4rel-r)-N-[(1S)-1-(4-{4-chloro-13,13-dimethyl-2,3,7,10-tetraazatricyclo[7.4.0.0^2,6]trideca-1(9),3,5,7-tetraen-10-yl}phenyl)-2,2,2-trifluoroethyl]-1-imino-N-methyl-1-oxo-1λ^6-thiane-4-carboxamide]
13 | 178 nM | 88 nM | CN(C(=O)C[C@H]1CCS(=O)(=O)C1)[C@@H](c1ccc(N2CCCc3c2cnc2cc(Cl)nn32)cc1)C(F)(F)F (relative stereo) [CPD0072799, N-[(1S)-1-(4-{4-chloro-2,3,7,10-tetraazatricyclo[7.4.0.0^2,6]trideca-1(9),3,5,7-tetraen-10-yl}phenyl)-2,2,2-trifluoroethyl]-2-[(3rel-S)-1,1-dioxo-1λ^6-thiolan-3-yl]-N-methylacetamide]
14 | 187 nM | 92 nM | CN(C(=O)C[C@@H]1CCS(=O)(=O)C1)[C@@H](c1ccc(N2CCCc3c2cnc2cc(Cl)nn32)cc1)C(F)(F)F (relative stereo) [CPD0072800, N-[(1S)-1-(4-{4-chloro-2,3,7,10-tetraazatricyclo[7.4.0.0^2,6]trideca-1(9),3,5,7-tetraen-10-yl}phenyl)-2,2,2-trifluoroethyl]-2-[(3rel-R)-1,1-dioxo-1λ^6-thiolan-3-yl]-N-methylacetamide]
15 | 65 nM | 28 nM | CN(C(=O)[C@H]1CC[S@@](=N)(=O)CC1)[C@@H](c1ccc(N2CCC3(CC3)c3c2cnc2cc(F)nn32)cc1)C(F)(F)F (relative stereo) [CPD0072852, (1rel-s,4rel-s)-1-imino-N-methyl-1-oxo-N-[(1S)-2,2,2-trifluoro-1-(4-{4′-fluoro-2′,3′,7′,10′-tetraazaspiro[cyclopropane-1,13′-tricyclo[7.4.0.0^2,6]tridecane]-1′(9′),3′,5′,7′-tetraen-10′-yl}phenyl)ethyl]-1λ^6-thiane-4-carboxamide]
16 | 62 nM | 23 nM | CN(C(=O)[C@H]1CC[S@](=N)(=O)CC1)[C@@H](c1ccc(N2CCC3(CC3)c3c2cnc2cc(F)nn32)cc1)C(F)(F)F (relative stereo) [CPD0072853, (1rel-r,4rel-r)-1-imino-N-methyl-1-oxo-N-[(1S)-2,2,2-trifluoro-1-(4-{4′-fluoro-2′,3′,7′,10′-tetraazaspiro[cyclopropane-1,13′-tricyclo[7.4.0.0^2,6]tridecane]-1′(9′),3′,5′,7′-tetraen-10′-yl}phenyl)ethyl]-1λ^6-thiane-4-carboxamide]
17 | 56 nM | 49 nM | CN(C(=O)[C@H]1CC[S@@+]([O-])CC1)[C@@H](c1ccc(N2CCC3(CC3)c3c2cnc2cc(F)nn32)cc1)C(F)(F)F (relative stereo) [CPD0072932, (1rel-s,4rel-s)-N-methyl-1-oxo-N-[(1S)-2,2,2-trifluoro-1-(4-{4′-fluoro-2′,3′,7′,10′-tetraazaspiro[cyclopropane-1,13′-tricyclo[7.4.0.0^2,6]tridecane]-1′(9′),3′,5′,7′-tetraen-10′-yl}phenyl)ethyl]-1λ^4-thiane-4-carboxamide]
18 | 58 nM | 33 nM | CN(C(=O)[C@H]1CC[S@+]([O-])CC1)[C@@H](c1ccc(N2CCC3(CC3)c3c2cnc2cc(F)nn32)cc1)C(F)(F)F (relative stereo) [CPD0072933, (1rel-r,4rel-r)-N-methyl-1-oxo-N-[(1S)-2,2,2-trifluoro-1-(4-{4′-fluoro-2′,3′,7′,10′-tetraazaspiro[cyclopropane-1,13′-tricyclo[7.4.0.0^2,6]tridecane]-1′(9′),3′,5′,7′-tetraen-10′-yl}phenyl)ethyl]-1λ^4-thiane-4-carboxamide]
